According to BindingDB's records for doi:10.1021/jm051296s (University of Southern California, 2006):
pIC50: −log10 of the molar value.

Molecular target: Integrin alpha-V/beta-3 (Homo sapiens, UniProt P05106+P06756)
Experiment: Inhibition of [125I]echistatin binding to integrin alphaVbeta3 receptor

Integrin alpha-V/beta-3, sequence (P05106 27-788 limits assumed): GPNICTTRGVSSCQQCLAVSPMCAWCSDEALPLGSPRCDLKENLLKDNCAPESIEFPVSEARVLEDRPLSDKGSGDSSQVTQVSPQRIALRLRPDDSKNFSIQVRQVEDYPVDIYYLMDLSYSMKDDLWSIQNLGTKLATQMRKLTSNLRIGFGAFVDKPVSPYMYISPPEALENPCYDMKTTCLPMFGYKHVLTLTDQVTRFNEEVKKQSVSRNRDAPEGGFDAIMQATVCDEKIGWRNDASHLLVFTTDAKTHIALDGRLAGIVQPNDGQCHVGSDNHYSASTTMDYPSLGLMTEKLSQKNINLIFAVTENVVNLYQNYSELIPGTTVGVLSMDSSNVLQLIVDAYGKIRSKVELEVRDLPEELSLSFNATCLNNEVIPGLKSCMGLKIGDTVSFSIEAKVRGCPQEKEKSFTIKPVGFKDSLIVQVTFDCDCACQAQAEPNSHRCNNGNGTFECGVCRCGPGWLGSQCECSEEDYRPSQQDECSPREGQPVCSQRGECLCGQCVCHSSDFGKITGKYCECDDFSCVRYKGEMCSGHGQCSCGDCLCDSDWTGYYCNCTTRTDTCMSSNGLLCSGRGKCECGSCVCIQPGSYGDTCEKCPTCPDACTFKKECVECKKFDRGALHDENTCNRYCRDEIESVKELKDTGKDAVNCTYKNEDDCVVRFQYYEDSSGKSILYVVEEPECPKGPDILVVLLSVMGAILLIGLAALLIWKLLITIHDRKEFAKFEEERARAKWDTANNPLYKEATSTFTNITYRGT
Integrin alpha-V/beta-3, sequence (P06756 31-889 limits assumed): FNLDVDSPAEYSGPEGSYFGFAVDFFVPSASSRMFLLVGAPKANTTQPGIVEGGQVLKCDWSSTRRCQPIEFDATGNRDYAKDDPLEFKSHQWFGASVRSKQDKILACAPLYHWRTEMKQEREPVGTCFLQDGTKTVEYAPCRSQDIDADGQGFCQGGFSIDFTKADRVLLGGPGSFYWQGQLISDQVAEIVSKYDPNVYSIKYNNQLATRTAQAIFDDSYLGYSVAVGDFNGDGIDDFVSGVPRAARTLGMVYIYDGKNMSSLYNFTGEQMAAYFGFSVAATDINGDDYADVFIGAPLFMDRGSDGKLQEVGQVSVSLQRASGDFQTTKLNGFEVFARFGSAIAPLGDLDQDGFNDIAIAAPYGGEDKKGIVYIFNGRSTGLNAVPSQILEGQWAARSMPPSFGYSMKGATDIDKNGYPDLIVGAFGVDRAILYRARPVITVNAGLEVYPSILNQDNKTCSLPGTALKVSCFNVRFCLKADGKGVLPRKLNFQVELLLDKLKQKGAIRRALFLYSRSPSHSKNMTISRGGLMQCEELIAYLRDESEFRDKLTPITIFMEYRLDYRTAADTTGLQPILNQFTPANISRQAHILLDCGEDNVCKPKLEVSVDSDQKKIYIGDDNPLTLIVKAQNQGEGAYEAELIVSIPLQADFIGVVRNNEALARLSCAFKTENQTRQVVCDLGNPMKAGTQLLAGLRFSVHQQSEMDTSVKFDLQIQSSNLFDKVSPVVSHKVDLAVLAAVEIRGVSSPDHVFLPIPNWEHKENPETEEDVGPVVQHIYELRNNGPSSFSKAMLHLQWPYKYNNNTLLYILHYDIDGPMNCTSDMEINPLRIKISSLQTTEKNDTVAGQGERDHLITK
Integrin alpha-V/beta-3, sequence (P06756 891-1048 limits assumed): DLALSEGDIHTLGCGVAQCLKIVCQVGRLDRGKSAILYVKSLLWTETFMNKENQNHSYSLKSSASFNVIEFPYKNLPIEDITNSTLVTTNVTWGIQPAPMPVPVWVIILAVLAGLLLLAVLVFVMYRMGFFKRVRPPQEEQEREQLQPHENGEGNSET

pIC50: < 6.00
SMILES: O=C(O)c1cccc(-c2ccc(CN=Nc3nc4nonc4nc3Nc3ccc(F)cc3)o2)c1 [3-(5-{[6-(4-fluoro-phenylamino)-[1,2,5]oxadiazolo[3,4-b]pyrazin-5-yl]-hydrazonomethyl}-furan-2-yl)-benzoic acid]
